The results in this text go back to US4036957A, “Phenoxy compounds in combinations to suppress gastric bleeding in aspirin therapy” (priority 1975, dated 1977).

Where two headings read alike, the source gives them in different places.

This data set deals with aspirin-induced gastric bleeding. In words: Prevention of aspirin-induced gastric bleeding in pyloric-ligated rats, i.p. test compound (Examples 1-22). In kind it is in vivo, Female Sprague-Dawley rats. The conditions noted are these: for Gastric Bleeding Index: score 0 to 40. On the procedure:
The prevention of aspirin-induced bleeding in rats was determined by the following procedure. Female Sprague-Dawley rats weighing 150-180 g. were fasted for 24 hours on wire and divided into groups of six animals each. The rats were anesthetized and a ligature placed at the pyloric-duodenal junction. Groups serving as controls received normal saline (4.0 ml/kg, i.p.). […] Some of the compounds were tested at 50 mg/kg, i.p. The rats were sacrificed 60 min. after aspirin administration by cervical dislocation. The volume of the gastric contents was determined and compared against that produced with the same amount of aspirin for change in volume. […] (Gradation between 0 to 40 is on an even scale).

The mark [1] stands for this setting: ip, 1 h, rat, 100 mg/kg i.p., aspirin 375 mg/kg p.o., read-out: Percent Decrease in Mucosal Bleeding vs Control.
Where [2] appears, read: ip, rat, 100 mg/kg i.p. (column head states no dose), aspirin 375 mg/kg p.o., read-out: Vol. % Decrease in Gastric Secretion.
Setting [3] is: rat, 100 mg/kg i.p. (column head states no dose), aspirin 375 mg/kg p.o.

For `Cc1c(Cl)cccc1OCC(C)O` (centres unmarked) [Compound 10, 1-(3-chloro-2-methylphenoxy)-2-propanol], the change in vivo at 100 mg/kg runs as follows: under setting [1], -40%; under setting [2], -18.8%. Besides, the “Gastric Bleeding Index” value under setting [3] was 22.5.
The matching figures for `Cc1ccc(Cl)cc1OCC(O)CO` (centres unmarked) [Compound 11, 3-(5-chloro-2-methylphenoxy)-1,2-propanediol]: -10%, -29.7% and 20.8.
Consider `COc1ccc(Cl)cc1OCC(C)O` (centres unmarked) [Compound 6, 1-(5-chloro-2-methoxyphenoxy)-2-propanol], for which the change in vivo at 100 mg/kg is -93% under setting [1] and -42.2% under setting [2]. For the same molecule, the “Gastric Bleeding Index” value under setting [3] is given as 1.7.
Take `Cc1cccc(Cl)c1OCC(C)OC(N)=O` (centres unmarked) [Compound 17, 1-(6-chloro-2-methylphenoxy)-2-propylcarbamate]: the change in vivo at 100 mg/kg runs as follows: under setting [1], -72%; under setting [2], -36.5%. Also, the “Gastric Bleeding Index” value under setting [3] is listed as 7.5.
As to “1-(3,5-dimethyl)-2-hydroxypropyl-4-ethyl thiosemicarbazide [Compound 19]”, under setting [3], the “Vol. % Decrease in Gastric Secretion” value is given as -40.5% and the “Gastric Bleeding Index” value was 0.0. For the setting “rat, 100 mg/kg i.p., aspirin 375 mg/kg p.o.”, this molecule displayed a Percent Decrease in Mucosal Bleeding vs Control of 100%.
Turning to `COc1ccc(Cl)cc1OCC(O)CO` (centres unmarked) [Compound 7, 3-(5-chloro-2-methoxyphenoxy)-1,2-propanediol], the change in vivo at 100 mg/kg by setting is: under setting [1], -49%; under setting [2], -42%. For the same molecule, the “Gastric Bleeding Index” value under setting [3] amounted to 19.2.
As for `CNC(=O)N1CCC(Oc2cccc(Cl)c2)C1` (centres unmarked) [Compound 20, 3-(3-chlorophenoxy)-1-methylcarbamoyl-pyrrolidine], the change in vivo at 100 mg/kg is -100% under setting [1] and -31% under setting [2]. The “Gastric Bleeding Index” value under setting [3] is on record as 0.0.
Taken in the same sequence, the figures for `Cc1ccc(Cl)cc1OCC(C)O` (centres unmarked) [Compound 12, 3-(5-chloro-2-methylphenoxy)-2-propanol] were -75%, -35.9% and 5.8.
On to `CN(C)CCNC(=O)N1CCC(Oc2cccc(Cl)c2)C1` (centres unmarked) [Compound 30, 3-(3-chlorophenoxy)-N-[2-(dimethylaminoethyl)carboxamide]-1-pyrrolidine], for which the change in vivo at 100 mg/kg under setting [1] is -100%. The change in vivo at 30 mg/kg (ip, 1 h, rat, at 30 mg/kg (footnote b), read-out: Percent Decrease in Mucosal Bleeding vs Control) was -97% and the change in vivo at 30 mg/kg (ip, rat, at 30 mg/kg (footnote b), read-out: Vol. % Decrease in Gastric Secretion) was -32.8%. The “Gastric Bleeding Index” value (rat, at 30 mg/kg (footnote b)) was determined as 0.8.
As to `Cc1cc(Cl)ccc1OCC(C)OC(=O)NC(C)C` (centres unmarked) [Compound 18, N-isopropyl 1-(4-chloro-2-methylphenoxy)-2-propylcarbamate], the change in vivo at 100 mg/kg is -28% under setting [1] and -29.3% under setting [2]. Moreover, under setting [3], the “Gastric Bleeding Index” value is 19.2.
Taken in the same sequence, the figures for `COc1ccccc1OCC(O)COC(=O)N(C)C` (centres unmarked) [Compound 4, N,N-dimethyl 3-(2-methoxyphenoxy)-1,2-propanediol-1-carbamate] were -70%, -35.2% and 11.7.
Take `NC(=O)OCC(O)COc1ccc(Cl)cc1` (centres unmarked) [Compound 21, 3-(4-chlorophenoxy)-2-hydroxypropylcarbamate]: the change in vivo at 100 mg/kg reads like this: under setting [1], -78%; under setting [2], -30.5%. Besides, the “Gastric Bleeding Index” value under setting [3] was found to be 4.2.
`COc1ccccc1OCC(C)O` (centres unmarked) [Compound 5, 1-(2-methoxyphenoxy)-2-propanol]: the change in vivo at 100 mg/kg is, setting by setting: under setting [1], -66%; under setting [2], -42%. Further, under setting [3], the “Gastric Bleeding Index” value worked out at 12.5.
The matching figures for `O=C1NCC(COc2ccc(Cl)cc2Cl)O1` (centres unmarked) [Compound 16, 5-(2,4-dichlorophenoxymethyl)-2-oxazolidinone]: -100%, -44.6% and 0.0.
As for `OCC(O)COc1ccccc1` (centres unmarked) [Compound 2, 3-phenoxy-1,2-propanediol], the change in vivo at 100 mg/kg is -14% (Rattus norvegicus, ip, 1 h, read-out: Percent Decrease in Mucosal Bleeding vs Control) and -14.1% (Rattus norvegicus, ip, read-out: Vol. % Decrease in Gastric Secretion). The “Gastric Bleeding Index” value under setting [3] was 20.0.
For `COc1ccc(Cl)cc1OCC(O)COC(N)=O` (centres unmarked) [Compound 13, 3-(5-chloro-2-methoxyphenoxy)-1,2-propanediol-1-carbamate], the change in vivo at 100 mg/kg is -100% under setting [1] and -57.6% under setting [2]. The “Gastric Bleeding Index” value under setting [3] came to 0.0.
The matching figures for `Cc1ccc(Cl)cc1OCC(O)COC(N)=O` (centres unmarked) [Compound 9, 3-(5-chloro-2-methylphenoxy)-1,2-propanediol-1-carbamate]: -81%, -36.6% and 7.2.
Turning to `OCC(CO)Oc1ccccc1` [Compound 1, 2-phenoxy-1,3-propanediol], the change in vivo at 100 mg/kg under setting [1] was -15%. In addition, the “Gastric Bleeding Index” value under setting [3] was 31.7.
Turning to `CCCCNCC(O)COc1ccccc1OC` (centres unmarked) [Compound 14, 1-(n-butylamino)-3-(2-methoxyphenoxy)-2-propanol], the change in vivo at 50 mg/kg (ip, 1 h, rat, 50 mg/kg i.p., aspirin 375 mg/kg p.o., read-out: Percent Decrease in Mucosal Bleeding vs Control) was -78%. Also, the change in vivo at 100 mg/kg under setting [1] is -70% and the change in vivo at 100 mg/kg under setting [2] is -35.6%. In addition, the Toxicity remark result (rat, 100 mg/kg i.p.) was “Toxic”. Moreover, under setting [3], the “Gastric Bleeding Index” value amounted to 5.8.
